# Laboratory results reported in paper PMC3601116, “Surfactant Protein D Modulates HIV Infection of Both T-Cells and Dendritic Cells” (PLoS ONE, 2013).
# How the values were obtained:
# [1] = target: T1, Surfactant Protein D (SP-D) (Homo sapiens, UniProt P35247); experiment: SPR competition of SP-D ([…]) binding to immobilised biotinylated gp120 IIIB; details: 5 mM CaCl2, SP-D in solution, lectin site (CRD), competes with gp120 glycans
# T1 construct: gene SFTPD; dodecamer (four trimeric units)
# T1 sequence (P35247 21-375): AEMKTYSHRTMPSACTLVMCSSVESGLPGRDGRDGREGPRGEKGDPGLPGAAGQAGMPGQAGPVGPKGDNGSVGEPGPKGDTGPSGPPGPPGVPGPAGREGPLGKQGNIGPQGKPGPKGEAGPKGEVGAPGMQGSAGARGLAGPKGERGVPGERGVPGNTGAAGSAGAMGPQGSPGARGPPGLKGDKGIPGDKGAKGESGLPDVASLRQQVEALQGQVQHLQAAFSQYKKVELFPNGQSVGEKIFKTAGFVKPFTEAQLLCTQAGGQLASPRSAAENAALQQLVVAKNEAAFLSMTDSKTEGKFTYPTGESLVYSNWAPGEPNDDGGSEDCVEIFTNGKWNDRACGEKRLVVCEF
# [2] = target: T1, Surfactant Protein D (SP-D); experiment: SPR competition of inactivated HIV BaL particles binding to immobilised SP-D; details: pH 7.4, calcium, 25 C, lectin site (CRD), competes with HIV glycans
# [3] = target: recombinant gp120 IIIB (HIV strain IIIB) (UniProt P04578); experiment: ELISA; competition: gp120 IIIB (2 µg/mL) immobilised; biotinylated soluble DC-SIGN, biotinylated soluble CD4 or CVN added together with SP-D (0-40 µg/mL); absorbance without competitor taken as 100%
Compound,IC50 ([1]; read-out: IC50) [mM],IC50 [1] [mM],also measured
OC[C@H]1OC(O)[C@H](O)[C@@H](O)[C@H]1O (stereo partly drawn) [D-galactose],32.2,–,–
CC(=O)N[C@H]1C(O)O[C@H](CO)[C@@H](O)[C@@H]1O (stereo partly drawn) [GlcNAc],–,22.9,–
OC[C@H]1OC(O)[C@H](O)[C@@H](O)[C@@H]1O (stereo partly drawn) [glucose],–,–,IC50 [2]: 5.4 mM
OC[C@H]1O[C@H](O[C@H]2[C@H](O)[C@@H](O)C(O)O[C@@H]2CO)[C@H](O)[C@@H](O)[C@@H]1O (stereo partly drawn) [maltose],–,6.5,–
OC[C@H]1OC(O)[C@@H](O)[C@@H](O)[C@@H]1O (stereo partly drawn) [mannose],7.8,–,–
Surfactant Protein D (from UniProt P35247 21-375) (natural protein),–,–,maximum inhibition of sDC-SIGN binding to gp120 [3]: 80%
